Measurements taken from patent US8044103B2, “Cyclic dipeptides and azetidinone compounds and their use in treating CNS injury and neurodegenerative disorders” (Georgetown University, priority 1998, dated 2011).

Tests used:
[1] = system: mice following controlled cortical impact injury (CCI); assay: Morris watermaze, place learning version, after controlled cortical impact injury; assay type: in vivo, Male C57Bl/6 mice
Experimental: Male C57Bl/6 mice (20-25 g) were obtained from Taconic Farms (Germantown, N.Y.) and housed in an area directly adjoining surgical and behavioral rooms for at least 1 week prior to any procedures. All mice were maintained at a constant temperature (22±2° C.) and a 12 hr light/dark cycle, with lights on at 6 am and all behavioral testing performed during the light cycle. Food and water were available ad libitumn.
Surgical anesthesia was induced and maintained with 4% and 2% isoflurane respectively, using a flow rate of 1.0-1.5 l oxygen per minute. Depth of anesthesia was assessed by monitoring respiration rate and palpebral and pedal-withdrawal reflexes. The animal was then placed onto a heated pad and core body temperature was monitored and maintained at 38+/−0.2° C. The head was mounted in a stereotaxic frame and the surgical site clipped and prepared with a series of three Nolvasan scrubs followed by sterile saline rinses. A 10 mm mid-line incision was made over the skull, the skin and fascia reflected, and a 4 mm craniotomy made on the central aspect of the left parietal bone with a tissue punch (Roboz, USA). Great care was taken with the removal of the parietal bone to avoid injury to the underlying dura mater which was continuously bathed in sterile normal saline warmed to 37.5° C. The impounder tip of the pneumatic injury device was cleaned with a pad, soaked in absolute alcohol, positioned to the surface of the exposed dura and automatically withdrawn the 44 mm stroke distance. Following injury at a moderate (6.0 m/s velocity, 1 mm tissue deformation depth) level, the incision was closed with interrupted 6-0 silk sutures, anaesthesia was discontinued and the mouse was placed into a heated cage to maintain normothermia for 45 minutes post-injury. All animals were monitored carefully for at least 4 hours post-surgery and then daily. To minimize variation between animals due to anaesthesia during acute neurological testing, 20 minutes was allowed for surgery and 5 minutes for suturing for each animal.
[…] The values for n represents the number of mice in the particular treatment group. The investigator was blinded to drug treatment both at the time of surgery and for neurological and behavioral scoring.
The Morris watermaze (Morris, 1984, J. Neurosci. Meth. 22:47-60) is employed to assess spatial learning by training mice to locate a hidden, submerged platform using extramaze visual information. The apparatus consists of a large, white circular pool (900 mm diameter, 500 mm high, water temperature 24±1° C.) with a plexiglass platform 76 mm diameter painted white and submerged 15 mm below the surface of water (225 mm high) which is rendered opaque with the addition of dilute, white, non-toxic paint. During training, the platform is hidden in one quadrant 14 cm from the side wall. The mouse is gently placed into the water facing the wall at one of four randomly-chosen locations separated by 90 degrees. The latency to find the hidden platform within a 90 second criterion time is recorded by a blinded observer. […]
Continuous variables compared across groups are examined using an analysis of variance (ANOVA) followed by Bonferroni correction (acute reflexes). Continuous variables subjected to repeated measurements over a period of time (beam walking, Morris water maze) are analyzed using a repeated measurements ANOVA followed by Tukey's pairwise comparison at each time point. […]

[2] = system: rats following moderate fluid percussion injury; assay: Mortality after moderate fluid percussion injury; assay type: in vivo, Male Sprague-Dawley rats; conditions: 1 mg/kg i.v. 30 min following moderate fluid percussion injury; died before the end of the study; saline 21.4% and 37.5%
Experimental: Rats were anesthetized with sodium pentobarbital (70 mg/kg i.p.), intubated, and implanted with femoral venous and arterial catheters. Brain temperature was assessed indirectly through a thermister in the temporalis muscle. Body temperature was maintained through a feedback-controlled heating blanket. Blood pressure was continuously monitored, and arterial blood gases analyzed periodically. After the animal was placed in a stereotaxic frame, the scalp and temporal muscle were reflected, and a small craniotomy (5 mm) located midway between the lambda and bregma sutures over the left parietal cortex allowed insertion of a Leur-Loc that is cemented in place. The fluid-percussion head injury device, manufactured by the Medical College of Virginia, consists of a plexiglass cylindrical reservoir filled with isotonic saline; one end includes a transducer that is mounted and connected to a 5 mm tube that attaches through a male Leur-Loc fitting to the female Leur-Loc cemented at the time of surgery. A pendulum strikes a piston at the opposite end of the device, producing a pressure pulse of approximately 22 msec duration, leading to deformation of underlying brain. The degree of injury is related to the pressure pulse, expressed in atmospheres (atm): 2.6 atm in our laboratory produces a moderate injury with regard to neurological and histological deficit. Sham (control) animals undergo anesthesia and surgery without fluid percussion brain injury. […]
Continuous variables compared across groups were examined using an analysis of variance (ANOVA) followed by Bonferroni correction (rightin reflex). Continuous variables subjected to repeated measurements over a period of time (cardiovascular and core temperature measurements) were analyzed using a repeated measurements ANOVA followed by Tukey's pairwise comparison at each time point. Ordinal measurements (composite neurological scores) were evaluated using the non-parametric Kruskal-Wallis ANOVA with individual, non-parametric Mann-Whitney U-tests. […]

## O=C1NC2(CCCCC2)C(=O)N2CCC[C@@H]12 [Compound 2a, Cyclo[(1-Amino-1-Cyclohexane-Carboxylic Acid)-Pro]]
[1]; 1.0 mg/kg at 30 min following CCI, day 8, p<0.001
  latency to find hidden platform (place learning) versus sham-operated controls, day 8: significantly different from sham-operated controls
[1]; 1.0 mg/kg at 30 min following CCI, day 9 (third day of training), p>0.05, out-performing saline-treated
  latency to find hidden platform (place learning) versus sham-operated controls, day 9: no longer significantly different from sham-operated controls
[1]; 1.0 mg/kg at 30 min following CCI, day 10, p<0.01
  latency to find goal platform (place learning) versus saline-treated injured mice, last day of training: significantly improved latencies
[1]; 0.1, 1.0 or 10.0 mg/kg at 60 min following CCI, 10 days post-surgery, all treatment groups
  place-learning compared with saline-treated controls (CCI+saline), dose-response experiments: improved place-learning
[1]; 0.1, 1.0 or 10.0 mg/kg at 60 min following CCI, by 10 days post-surgery
  dose giving the most improved learning (place learning watermaze): 10 mg/kg
[2]
  mortality rate: 25%
